From patent US20230138851A1, “NOVEL ALKYNE DERIVATIVES” (CARNA BIOSCIENCES, INC., priority 2020, published 2023) come the findings set out here.

Assay type in all cases: biochemical
One assay deals with T1, DYRK2 (Homo sapiens, UniProt Q92630).
T1 construct: purchased Carna Biosciences, Inc. 04-132
T1 sequence (Q92630 1-601): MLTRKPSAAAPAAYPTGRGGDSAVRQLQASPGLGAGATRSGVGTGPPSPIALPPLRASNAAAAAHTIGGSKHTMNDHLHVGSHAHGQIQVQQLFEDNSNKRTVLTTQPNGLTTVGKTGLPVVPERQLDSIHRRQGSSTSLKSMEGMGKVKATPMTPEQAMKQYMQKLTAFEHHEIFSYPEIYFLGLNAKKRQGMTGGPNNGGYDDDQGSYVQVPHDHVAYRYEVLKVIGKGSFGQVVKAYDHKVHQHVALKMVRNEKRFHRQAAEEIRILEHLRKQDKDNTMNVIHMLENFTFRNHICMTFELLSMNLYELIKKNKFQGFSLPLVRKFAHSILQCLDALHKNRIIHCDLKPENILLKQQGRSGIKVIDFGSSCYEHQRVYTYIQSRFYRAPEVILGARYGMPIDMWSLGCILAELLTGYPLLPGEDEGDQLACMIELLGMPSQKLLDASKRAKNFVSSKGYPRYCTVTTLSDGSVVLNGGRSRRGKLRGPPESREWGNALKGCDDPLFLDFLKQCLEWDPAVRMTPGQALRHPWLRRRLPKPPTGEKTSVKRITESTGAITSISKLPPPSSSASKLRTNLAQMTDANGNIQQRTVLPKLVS
The assay can be described thus: Inhibition test on activity of DYRK family, mobility shift assay (MSA), DYRK2. The following applies: ATP 40 μM, FITC-labeled DYRKtide peptide substrate, room temperature 1 hour; for IC50: read-out: Inhibitory Activity 2 (IC50 against DYRK2). How it is done:
(§1) [Inhibition Test on Activity of DYRK Family (DYRK1A, DYRK1B, DYRK2, and […])]
(§2) (Method for Measuring Kinase Activity)
(§3) The kinase activity was measured by mobility shift assay (MSA) method using QuickScout Screening Assist™ MSA (commercially available kit manufactured by Carna Biosciences, Inc.). The substrate of the kinase reaction used was an FITC-labeled DYRKtide peptide included in the kit. An assay buffer [20 mM HEPES, 0.01% Triton X-100™, 2 mM dithiothreitol, pH 7.5] was used to create a substrate mixture solution with a substrate (4 μM), MgCl2 (20 mM), and ATP (DYRK1A: 100 μM; DYRK1B: 200 μM; DYRK2: 40 μM; and DYRK3: 20 μM). In addition, kinases (DYRK1A: manufactured by Carna Biosciences, Inc., Cat. No. 04-130; DYRK1B: manufactured by Carna Biosciences, Inc., Cat. No. 04-131; DYRK2; manufactured by Carna Biosciences, Inc., Cat. No. 04-132; and DYRK3; manufactured by Carna Biosciences, Inc., Cat. No. 04-133) were diluted with the assay buffer to prepare enzyme solutions (DYRK1A: 0.2 ng/μL; DYRK1B: 0.08 ng/μL; DYRK2: 0.04 ng/μL; and DYRK3: 0.25 ng/μL). The 10 mM solution of the test compound in DMSO was further diluted with DMSO to 10 levels of the concentration (0.00003 mM, 0.0001 mM, 0.0003 mM, 0.001 mM, 0.003 mM, 0.01 mM, 0.03 mM, 0.1 mM, 0.3 mM, and 1 mM), each of which was subjected to 25-fold dilution with the assay buffer to obtain a drug solution (4% DMSO solution). 5 μL of the drug solution or a control solution (4% DMSO-assay buffer), 5 μL of the substrate mixture solution, and 10 μL of the enzyme solution were mixed in the wells of a polypropylene 384-well plate and allowed to react at room temperature for 1 hour, and then the reaction was quenched by adding 60 μL of the termination buffer included in the kit. Subsequently, the quantities of the substrates (S) and the phosphorylated substrate (P) in the reaction solution were measured using LabChip EZ Reader II system (manufactured by Caliper Life Sciences) according to the protocol of the assay kit.
(§4) (Method for Evaluating Inhibitory Activity)
(§5) The heights of the peaks of the “substrate” and the “phosphorylated substrate” were expressed as S and P, respectively, and a blank containing the assay buffer instead of the enzyme solution was also measured.
(§6) The inhibition rate (%) of the test compound was calculated according to the following equation:
(§7) Inhibition rate (%)=(1−(C−A)/(B−A))×100
(§8) wherein, A, B, and C represent P/(P+S) of the blank well, P/(P+S) of the control solution well, and P/(P+S) of the compound-containing well, respectively.
(§9) The IC50 value was calculated via a regression analysis of the inhibition rate and the test compound concentration (logarithmic value).
(§10) The inhibiting activities of representative compounds of the present invention are shown against DYRK1A, DYRK1B, DYRK2, and DYRK3 in Tables 7 and 8. The kinase activity inhibitory effect was indicated with the mark *** at an IC50 value of less than 0.01 μM; the mark ** at 0.01 μM or more and less than 0.1 μM; the mark * at 0.1 μM or more and less than 1 μM; and the mark — at 1 μM or more (N.D. indicates not measured).

In the next assay the target is T2, DYRK1A (Homo sapiens, UniProt Q13627).
T2 construct: purchased Carna Biosciences, Inc. 04-130
The assay can be described thus: Inhibition test on activity of DYRK family, mobility shift assay (MSA), DYRK1A. The following applies: ATP 100 μM, FITC-labeled DYRKtide peptide substrate, room temperature 1 hour; for IC50: read-out: Inhibitory Activity 1a (IC50 against DYRK1A). The protocol:
as §1, §2, §3, §4, §5, §6, §7, §8, §9, §10

The target in the next assay is T3, DYRK3 (Homo sapiens, UniProt O43781).
T3 construct: purchased Carna Biosciences, Inc. 04-133
T3 sequence (O43781 1-588): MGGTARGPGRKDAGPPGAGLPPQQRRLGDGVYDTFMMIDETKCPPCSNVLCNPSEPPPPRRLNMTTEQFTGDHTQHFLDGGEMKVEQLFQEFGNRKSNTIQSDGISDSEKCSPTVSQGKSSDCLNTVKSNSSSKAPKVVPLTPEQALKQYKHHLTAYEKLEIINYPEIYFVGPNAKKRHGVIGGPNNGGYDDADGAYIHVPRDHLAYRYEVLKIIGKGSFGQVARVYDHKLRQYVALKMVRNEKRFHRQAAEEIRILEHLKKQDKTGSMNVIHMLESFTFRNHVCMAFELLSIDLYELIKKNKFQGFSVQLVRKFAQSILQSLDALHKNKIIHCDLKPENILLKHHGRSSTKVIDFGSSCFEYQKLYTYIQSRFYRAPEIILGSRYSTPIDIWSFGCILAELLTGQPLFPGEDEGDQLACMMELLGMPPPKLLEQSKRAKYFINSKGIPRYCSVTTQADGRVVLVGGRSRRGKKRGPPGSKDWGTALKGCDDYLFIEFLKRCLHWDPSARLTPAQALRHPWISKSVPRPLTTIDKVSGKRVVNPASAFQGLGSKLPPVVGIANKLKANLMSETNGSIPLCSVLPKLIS
The assay can be described thus: Inhibition test on activity of DYRK family, mobility shift assay (MSA), DYRK3. Conditions: ATP 20 μM, FITC-labeled DYRKtide peptide substrate, room temperature 1 hour; for IC50: read-out: Inhibitory Activity 3 (IC50 against DYRK3). The protocol:
as §1, §2, §3, §4, §5, §6, §7, §8, §9, §10

For the compound `CN(C)CC#CC1CNC(=O)N1c1nc2c3c(ccc2s1)OCC3` (racemic) [Example 18, (RS)-1-(7,8-dihydrobenzofuro[4,5-d]thiazol-2-yl)-5-[3-(dimethylamino)prop-1-yn-1-yl]imidazolidin-2-one], the IC50 (in general, the concentration that inhibits the measured activity by half) is at least 1000 nM on DYRK2 and 100 to 1000 nM on DYRK3. For the same compound, on DYRK1A, the “Inhibitory Activity 1a (IC50 against DYRK1A)” value (from here on “Inhibitory Activity 1a”) is given as “* *”.
Take `CC#CC1C(CN)NC(=O)N1c1nc2c3c(ccc2s1)OCC3` (stereo not drawn) [Example 63, 4-(aminomethyl)-1-(7,8-dihydrobenzofuro[4,5-d]thiazol-2-yl)-5-(prop-1-yn-1-yl)imidazolidin-2-one]: the IC50 on DYRK2 is 100 to 1000 nM. In addition, the “Inhibitory Activity 1a” value at DYRK1A is listed as “* * *”. Moreover, the “Inhibitory Activity 3 (IC50 against DYRK3)” value on DYRK3 is “* *”.
For the compound `CC#CC1CNC(=O)N1c1nc2c(ccc3ncccc32)s1` (single isomer, unassigned) [Example 36, 5-(prop-1-yn-1-yl)-1-(thiazolo[4,5-f]quinolin-2-yl)imidazolidin-2-one], the concentration for half-maximal inhibition (IC50) on DYRK2 and on DYRK3 was 100 to 1000 nM throughout. In addition, at DYRK1A, the “Inhibitory Activity 1a” value was “* *”.
Take `CC#CC1CNC(=O)N1c1nc2c(ccc3[nH]ncc32)s1` (racemic) [Example 50, (RS)-5-(prop-1-yn-1-yl)-1-(6H-thiazolo[4,5-e]indazol-2-yl)imidazolidin-2-one]: the IC50 on DYRK2 and on DYRK3 was at least 1000 nM throughout. The “Inhibitory Activity 1a” value at DYRK1A is given as “* *”.
In the case of `CC#C[C@@H]1[C@H](CO)NC(=O)N1c1nc2c3c(ccc2s1)OCCO3` (relative stereo) [Example 64, cis-1-(7,8-dihydro-[1,4]dioxino[2′,3′:5,6]benz[1,2-d]thiazol-2-yl)-4-(hydroxymethyl)-5-(prop-1-yn-1-yl)imidazolidin-2-one], the IC50 on DYRK2 and on DYRK3 was 100 to 1000 nM throughout. In addition, at DYRK1A, the “Inhibitory Activity 1a” value was “* * *”.
Take `CC#C[C@H]1[C@@H](C)NC(=O)N1c1nc2c3c(ccc2s1)OCC3` [Example 17, (4R,5S)-1-(7,8-dihydrobenzofuro[4,5-d]thiazol-2-yl)-4-methyl-5-(prop-1-yn-1-yl)imidazolidin-2-one]: the concentration for half-maximal inhibition (IC50) on DYRK2 was at least 1000 nM; at DYRK1A, 100 to 1000 nM; on DYRK3, at least 1000 nM.
As for `CC#C[C@@H]1[C@H](C)NC(=O)N1c1nc2c3c(ccc2s1)OCCC3` [Example 57, (4S,5R)-1-(8,9-dihydro-7H-chromeno[5,6-d]thiazol-2-yl)-4-methyl-5-(prop-1-yn-1-yl)imidazolidin-2-one], the concentration for half-maximal inhibition (IC50) at DYRK2 and at DYRK3 was 100 to 1000 nM in each case. For the same compound, at DYRK1A, the “Inhibitory Activity 1a” value is on record as “* * *”.
Turning to `CC#CC1CNC(=O)N1c1nc2c3c(ccc2s1)OCCN3C1CC1` (racemic) [Example 45, (RS)-1-(9-cyclopropyl-8,9-dihydro-7H-thiazolo[4′,5′:3,4]benz[1,2-b][1,4]oxazin-2-yl)-5-(prop-1-yn-1-yl)imidazolidin-2-one], the IC50 at DYRK2 and at DYRK3 was 100 to 1000 nM each time. The “Inhibitory Activity 1a” value at DYRK1A was “* *”.
Take `CC#C[C@H]1[C@H](CN(C)C)NC(=O)N1c1nc2c3c(ccc2s1)OCC3` (single isomer, unassigned) [Example 70, trans-1-(7,8-dihydrobenzofuro[4,5-d]thiazol-2-yl)-4-[(dimethylamino)methyl]-5-(prop-1-yn-1-yl)imidazolidin-2-one]: the values for the IC50 at DYRK2, at DYRK1A and on DYRK3 were at least 1000 nM, 100 to 1000 nM and at least 1000 nM, respectively.
Consider `C[Si](C)(C)C#CC1CNC(=O)N1c1nc2c3c(ccc2s1)OCC3` (racemic) [Example 11, (RS)-1-(7,8-dihydrobenzofuro[4,5-d]thiazol-2-yl)-5-[(trimethylsilyl)ethynyl]imidazolidin-2-one], for which the IC50 on DYRK2 and on DYRK3 was 100 to 1000 nM throughout. On DYRK1A, the “Inhibitory Activity 1a” value was “* *”.
Regarding `CC#C[C@@H]1[C@H](C)NC(=O)N1c1nc2c3c(ccc2s1)OCCO3` [Example 56, (4S,5R)-1-(7,8-dihydro-[1,4]dioxino[2′,3′:5,6]benz[1,2-d]thiazol-2-yl)-4-methyl-5-(prop-1-yn-1-yl)imidazolidin-2-one], the IC50 on DYRK2 and at DYRK3 was 100 to 1000 nM each time. Further, on DYRK1A, the “Inhibitory Activity 1a” value is on record as “* * *”.
Consider `CC#CC1CNC(=O)N1c1nc2c3c(ccc2s1)OCCN3S(C)(=O)=O` (racemic) [Example 47, (RS)-1-[9-(methylsulfonyl)-8,9-dihydro-7H-thiazolo[4′,5′:3,4]benz[1,2-b][1,4]oxazin-2-yl]-5-(prop-1-yn-1-yl)imidazolidin-2-one], for which the values for the IC50 on DYRK2 and at DYRK3 were at least 1000 nM and 100 to 1000 nM, respectively. For the same compound, the “Inhibitory Activity 1a” value at DYRK1A is given as “* *”.
In the case of `CC#CC1CNC(=O)N1c1nc2c3c(ccc2s1)OCC3` (single isomer, unassigned) [Example 9, 1-(7,8-dihydrobenzofuro[4,5-d]thiazol-2-yl)-5-(prop-1-yn-1-yl)imidazolidin-2-one], on DYRK2, the “Inhibitory Activity 2 (IC50 against DYRK2)” value is on record as “* *”. The “Inhibitory Activity 1a” value on DYRK1A is recorded as “* * *”. Besides, on DYRK3, the “Inhibitory Activity 3 (IC50 against DYRK3)” value is given as “* *”.
